# System: P12-Ichikawa
# Experiment: cell viability relative to DMSO control; higher = less cytotoxic
# Conditions: 48 h
# How it was run: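 Leukemia cells (NOMO1 or SEM, 500 cells/well; P12-Ichikawa, 1000 cells/well) were seeded in 5 μl in 1536-well plates after at least four passages of adaptation to each medium. They received library compounds in DMSO by pin dosing, 11 threefold points from 47 μM to 0.79 nM. Luminescence with CellTiter-Glo One was read after 48 h at 37°C. Viability is stated per plate relative to DMSO wells, with cell-free wells as background.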
# [1] = HPLM + 10% dialyzed FBS, 0.000781 µM
# [2] = HPLM + 10% dialyzed FBS, 0.00234 µM
# [3] = HPLM + 10% dialyzed FBS, 0.00702 µM
# [4] = HPLM + 10% dialyzed FBS, 0.0211 µM
# [5] = HPLM + 10% dialyzed FBS, 0.0632 µM
# [6] = HPLM + 10% dialyzed FBS, 0.19 µM
# [7] = HPLM + 10% dialyzed FBS, 0.569 µM
# [8] = HPLM + 10% dialyzed FBS, 1.71 µM
# [9] = HPLM + 10% dialyzed FBS, 5.12 µM
# [10] = HPLM + 10% dialyzed FBS, 15.4 µM
# [11] = HPLM + 10% dialyzed FBS, 46.1 µM
# [12] = RPMI 5 mM glucose + 10% FBS, 0.000781 µM
# [13] = RPMI 5 mM glucose + 10% FBS, 0.00234 µM
# [14] = RPMI 5 mM glucose + 10% FBS, 0.00702 µM
# [15] = RPMI 5 mM glucose + 10% FBS, 0.0211 µM
# [16] = RPMI 5 mM glucose + 10% FBS, 0.0632 µM
# [17] = RPMI 5 mM glucose + 10% FBS, 0.19 µM
# [18] = RPMI 5 mM glucose + 10% FBS, 0.569 µM
# [19] = RPMI 5 mM glucose + 10% FBS, 1.71 µM
# [20] = RPMI 5 mM glucose + 10% FBS, 5.12 µM
# [21] = RPMI 5 mM glucose + 10% FBS, 15.4 µM
# [22] = RPMI 5 mM glucose + 10% FBS, 46.1 µM
# [23] = RPMI 5 mM glucose + 10% dialyzed FBS, 0.000781 µM
# [24] = RPMI 5 mM glucose + 10% dialyzed FBS, 0.00234 µM
# [25] = RPMI 5 mM glucose + 10% dialyzed FBS, 0.00702 µM
# [26] = RPMI 5 mM glucose + 10% dialyzed FBS, 0.0211 µM
# [27] = RPMI 5 mM glucose + 10% dialyzed FBS, 0.0632 µM
# [28] = RPMI 5 mM glucose + 10% dialyzed FBS, 0.19 µM
# [29] = RPMI 5 mM glucose + 10% dialyzed FBS, 0.569 µM
# [30] = RPMI 5 mM glucose + 10% dialyzed FBS, 1.71 µM
# [31] = RPMI 5 mM glucose + 10% dialyzed FBS, 5.12 µM
# [32] = RPMI 5 mM glucose + 10% dialyzed FBS, 15.4 µM
# [33] = RPMI 5 mM glucose + 10% dialyzed FBS, 46.1 µM
Compound,cell viability [1] [%],cell viability [2] [%],cell viability [3] [%],cell viability [4] [%],cell viability [5] [%],cell viability [6] [%],cell viability [7] [%],cell viability [8] [%],cell viability [9] [%],cell viability [10] [%],cell viability [11] [%],cell viability [12] [%],cell viability [13] [%],cell viability [14] [%],cell viability [15] [%],cell viability [16] [%],cell viability [17] [%],cell viability [18] [%],cell viability [19] [%],cell viability [20] [%],cell viability [21] [%],cell viability [22] [%],cell viability [23] [%],cell viability [24] [%],cell viability [25] [%],cell viability [26] [%],cell viability [27] [%],cell viability [28] [%],cell viability [29] [%],cell viability [30] [%],cell viability [31] [%],cell viability [32] [%],cell viability [33] [%]
Cc1nn(Cc2ccccc2Cl)c(C)c1CN(C)CC(O)COc1ccc(Cl)cc1 (stereo not drawn),110,101,105,104,108,108,102,97.4,104,95.1,59.6,93.9,94.5,93,108,97,101,94.5,91.5,92.1,83.7,42.8,94,98.3,95.2,95.7,98.2,92.6,94.9,92.1,89.4,89.1,39.6
CN[C@@H]1[C@@H](O)[C@@H](O[C@@H]2[C@@H](O)[C@H](O[C@H]3O[C@H](CN)[C@@H](O)[C@H](O)[C@H]3O)[C@@H](N)C[C@H]2NC(=O)[C@@H](O)CN)OC[C@]1(C)O,123,131,124,122,128,120,126,113,110,108,108,,,,,,,,,,,,,,,,,,,,,,
CC(C)c1nc(CN(C)C(=O)N[C@H](C(=O)N[C@@H](Cc2ccccc2)C[C@H](O)[C@H](Cc2ccccc2)NC(=O)OCc2cncs2)C(C)C)cs1,91.9,87.4,87.2,102,103,92.1,78.4,78.2,83.9,85.8,89.6,87.2,86.5,87.7,84.2,92.4,92.6,77.2,90.1,81.5,79.8,88.2,85.3,79.8,89.4,83.4,92.6,87.2,70.8,82.2,77.9,82.8,82.3
CN(C)C1CCN(C(=O)c2ccc(NC(=O)Nc3nc(N4CCOCC4)nc(N4CCOCC4)n3)cc2)CC1,91.2,92,101,91.7,75.9,76,66.4,64.2,57.8,34.3,20.9,85.6,84.9,82.6,73,56,58.5,48.2,42.2,35.4,34.7,22.9,83.7,85.5,80.6,78.6,61.6,56.2,47.4,43.4,41.5,34,20.1
CC1(C)O[C@@H]2C[C@H]3[C@@H]4C[C@H](F)C5=CC(=O)C=C[C@]5(C)[C@@]4(F)[C@@H](O)C[C@]3(C)[C@]2(C(=O)CO)O1,107,110,99.4,83.8,71.1,56.4,69.1,60.7,52.6,62.9,53,106,99.4,96.4,78.7,55.4,53.2,50.2,53,51.7,46.4,43.5,74.9,103,94.6,67.9,50.8,46.7,47.6,42.5,40.6,36.8,30.4
CC(C)(C)OC(=O)N[C@H]1CCCCC/C=C\[C@@H]2C[C@@]2(C(=O)N[S+](=O)([O-])C2CC2)NC(=O)[C@@H]2C[C@@H](OC(=O)N3Cc4cccc(F)c4C3)CN2C1=O,108,114,108,109,112,114,115,111,108,104,87.1,110,108,110,108,114,112,125,114,113,104,82.1,95.2,104,117,94.3,105,104,112,106,94.2,89.3,80.5
CC(C)CNc1ccnc(NCc2csc(-c3ccccc3)n2)n1,110,123,128,132,130,132,127,115,101,96.3,63.6,,,,,,,,,,,,,,,,,,,,,,
CC1CNc2c(cccc2[S+](=O)([O-])N[C@@H](CCCNC(=N)N)C(=O)N2CC[C@@H](C)C[C@@H]2C(=O)O)C1 (stereo partly drawn),94.9,107,104,100,110,118,109,111,116,105,99.5,107,113,108,117,116,114,111,116,119,116,98.8,101,110,104,101,111,107,107,109,112,103,89.4
C[C@H]1COC2=C3N1\C=C(C(O)=O)/C(=O)C3=CC(=C2N4CCN(C)CC4)F,117,116,121,116,109,113,97.2,109,92.7,85.6,82.9,111,113,117,120,98.2,116,98.6,103,84.2,62.5,70.4,109,111,114,118,108,112,91.7,94.7,82.4,74.2,62.6

# From the supplement of paper PMC11451515
